Source: US11795165B2, “Tetrahydro-benzoazepine glycosidase inhibitors” (Asceneuron SA, priority 2018, dated 2023)

target: His-Tagged hOGA (human O-GlcNAcase) (Homo sapiens (Human), UniProt O60502); experiment: Human O-GlcNAcase enzyme inhibition assay (OGA enzyme inhibition assay); type: biochemical; conditions: His-Tagged hOGA 20 nM, FL-GlcNAc 10 μM, 60 min at room temperature, pH 6.5; activity classes
Protocol: Example B01: Human O-GlcNAcase Enzyme Inhibition Assay
5 μl of the appropriate concentration of a solution of inhibitor in McIlvaine's Buffer (pH 6.5) in 2% DMSO (for a dose response curve calculation) is added into each well of a 384-well plate (Greiner, 781900). Then, 20 nM of His-Tagged hOGA and 10 μM of FL-GlcNAc (Fluorescein mono-beta-D-(2-deoxy-2-N-acetyl) glucopyranoside; Marker Gene Technologies Inc, M1485) were added to the 384-well plate for a final volume of 20 μl. After incubation for 60 min at room temperature, the reaction was terminated by the addition of 10 μL of stop buffer (200 mM glycine, pH 10.75). The level of fluorescence (Δexc 485 nm; (Δemm 520 nm) was read on a PHERAstar machine. The amount of fluorescence measured was plotted against the concentration of inhibitor to produce a sigmoidal dose response curve to calculate an IC50. All individual data was corrected by subtraction of the background (Thiamet 3 uM=100% inhibition) whilst 0.5% DMSO was considered as the control value (no inhibition).

Sequence of His-Tagged hOGA (human O-GlcNAcase) (O60502 whole entry): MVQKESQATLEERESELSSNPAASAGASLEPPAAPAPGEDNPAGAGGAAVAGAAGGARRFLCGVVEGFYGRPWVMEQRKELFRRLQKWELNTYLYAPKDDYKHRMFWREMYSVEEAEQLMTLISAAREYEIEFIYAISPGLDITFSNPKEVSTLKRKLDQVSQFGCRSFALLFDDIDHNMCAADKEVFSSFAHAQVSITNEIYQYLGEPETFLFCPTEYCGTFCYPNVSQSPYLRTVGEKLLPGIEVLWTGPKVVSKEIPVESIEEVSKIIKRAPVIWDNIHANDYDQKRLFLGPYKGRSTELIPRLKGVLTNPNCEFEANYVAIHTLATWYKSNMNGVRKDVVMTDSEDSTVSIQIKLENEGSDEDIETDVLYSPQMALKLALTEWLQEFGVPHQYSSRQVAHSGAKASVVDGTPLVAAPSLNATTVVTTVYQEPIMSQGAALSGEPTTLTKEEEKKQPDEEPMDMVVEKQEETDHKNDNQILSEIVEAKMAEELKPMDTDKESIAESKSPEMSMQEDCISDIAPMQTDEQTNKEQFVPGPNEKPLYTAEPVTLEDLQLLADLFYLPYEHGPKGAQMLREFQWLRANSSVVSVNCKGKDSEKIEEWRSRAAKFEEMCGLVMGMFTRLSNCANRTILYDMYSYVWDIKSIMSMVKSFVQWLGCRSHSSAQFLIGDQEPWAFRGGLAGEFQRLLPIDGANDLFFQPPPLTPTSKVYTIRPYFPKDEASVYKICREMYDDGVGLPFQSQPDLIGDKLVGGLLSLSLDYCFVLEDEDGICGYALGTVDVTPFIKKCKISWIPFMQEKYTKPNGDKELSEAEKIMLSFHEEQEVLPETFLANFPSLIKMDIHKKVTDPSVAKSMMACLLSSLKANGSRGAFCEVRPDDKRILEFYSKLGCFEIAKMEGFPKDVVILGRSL

| Compound | IC50 |
| --- | --- |
| CC(c1ccc2scnc2c1)N1CCCc2cc(-c3cnn(C)c3)ccc2C1 (racemic) [Example 110] | 0.2 to 1 µM |
| COc1ccc2c(c1)CCN(C(C)c1ccc3nsnc3c1)CC2 (stereo not drawn) [Example 1, 5-(1-(7-methoxy-1,2,4,5-tetrahydro-3H-benzo[d]azepin-3-yl)ethyl)benzo[c][1,2,5]thiadiazole] | < 0.05 µM |
| COc1ccc2c(n1)CCN(C(C)c1ccc3scnc3c1)CC2 (racemic) [Example 31, 5-(1-(2-methoxy-5,6,8,9-tetrahydro-7H-pyrido[2,3-d]azepin-7-yl)ethyl)benzo[d]thiazole] | < 0.05 µM |
| CC(=O)Nc1cnc2c(c1)CCN(C(C)c1ccc3scnc3c1)CC2 (racemic) [Example 92] | < 0.05 µM |
| CC(c1ccc2scnc2c1)N1CCc2ccc(S(C)(=N)=O)cc2CC1 (single isomer, unassigned) [Example 115] | 1 to 10 µM |
| 5-(1-(7-methoxy-2-methyl-1,2,4,5-tetrahydro-3H-benzo[d]azepin-3-yl)ethyl)benzo[d]thiazole [Example 19] | 0.05 to 0.2 µM |
| CC(C)Oc1ccc2c(c1)CCN(C(C)c1ccc3scnc3c1)CC2 (racemic) [Example 25, 5-(1-(7-isopropoxy-1,2,4,5-tetrahydro-3H-benzo[d]azepin-3-yl)ethyl)benzo[d]thiazole] | 0.05 to 0.2 µM |
| CC(c1ccc2scnc2c1)N1CCc2ccc(-c3ccccn3)cc2CC1 (racemic) [Example 32, 5-(1-(7-(pyridin-2-yl)-1,2,4,5-tetrahydro-3H-benzo[d]azepin-3-yl)ethyl)benzo[d]thiazole] | 1 to 10 µM |

Results, then the compound that gave them:

| IC50 | Compound |
| --- | --- |
| < 0.05 µM | CC(c1ccc2scnc2c1)N1CCc2ccc(Br)cc2CC1 (racemic) [Example 14, 5-(1-(7-bromo-1,2,4,5-tetrahydro-3H-benzo[d]azepin-3-yl)ethyl)benzo[d]thiazole] |
| < 0.05 µM | CC(c1ccc2scnc2c1)N1CCc2cc(S(C)(=O)=O)cnc2CC1 (racemic) [Example 51] |
| < 0.05 µM | CC(c1ccc2scnc2c1)N1CCc2ccc(S(C)(=N)=O)cc2CC1 (racemic) [Example 37] |
| < 0.05 µM | CC(c1ccc2scnc2c1)N1CCc2ccccc2CC1 (racemic) [Example 20, 5-(1-(1,2,4,5-tetrahydro-3H-benzo[d]azepin-3-yl)ethyl)benzo[d]thiazole] |
| < 0.05 µM | CC(=O)Nc1ccc2c(c1)CCN(C(C)c1ccc3scnc3c1)CC2 (racemic) [Example 43] |
| < 0.05 µM | COc1ccc2c(c1)CCN(C(C)c1cnc3c(c1)OCC3)CC2 (racemic) [Example 34, 6-(1-(7-methoxy-1,2,4,5-tetrahydro-3H-benzo[d]azepin-3-yl)ethyl)-2,3-dihydrofuro[3,2-b]pyridine] |
| < 0.05 µM | Cc1cc(Oc2ccc3c(c2)CCN(C(C)c2ccc4scnc4c2)CC3)ccn1 (racemic) [Example 60] |
